Results taken from patent US10525105B2, “Peptide for repairing cartilage and treating osteoarthritis” (Guangzhou Link Health Pharma Co., Ltd., priority 2016, dated 2020).
Peptide text beside a SMILES is read from it.

How the values were obtained:
chondrocytes [1] = test: Proliferation of chondrocytes by MTS assay; assay type: cell-based, New Zealand white rabbit; conditions: 5 days of treatment, OD 570 nm, BM23 peptide 0.1, 0.3, 1 μM, IGF-1 1 μM
Protocol: The articular cartilage of New Zealand white rabbit aged 2 months old was cut under sterile conditions, and cut into a size of 1 mm. The articular cartilage was digested at 37° C. according to the following procedure: (1) digested with 2 mg/ml hyaluronidase for 45 minutes; (2) digested with 2 mg/ml trypsin for 45 minutes; and (3) digested with 4 mg/ml type II collagenase for 3 hours, washed, and then centrifuged (1500 r/min) for 5 minutes; and the precipitate was cultured in a DMEM medium containing 15% fetal bovine serum. […] Detection of the Proliferation of Chondrocytes by MTS Assay Chondrocytes were inoculated in a 96-well plate at 2×10^4 cells/well, and different concentrations of BM23 peptides (0.1 μM, 0.3 μM, and 1 μM) were added; PBS was set as a negative control group, and IGF-1 (1 μM) was set as a positive control group. The 96-well plate was placed in a 5% CO2 saturated water-vapor carbon dioxide incubator for a culture at 37° C. for 5 days. 20 μl of MTS mixture was added to each well, and the culture was continued for 3-4 hours for coloration. Before testing, the culture plate was shaken for 10 seconds to uniformly mix colors. The optical density (OD) of each well was measured at a wavelength of 570 nm on an enzyme-linked immunometric meter.

[2] = test system: rat bone marrow mesenchymal stem cells (BMSCs); test: Chondrogenic induction of BMSCs, quantitative PCR of COL2A1 and ACAN mRNA; assay type: cell-based; conditions: rat BMSCs in chondrogenic medium
Protocol: Three SD rats aged 8 weeks were sacrificed by a dislocation method and disinfected with 70% ethanol for 5 minutes. The abdominal wall layers of the three SD rats were then cut with scissors, an incision of each SD rat was pulled to a femur, and muscles on the femur were carefully separated.
A middle of the femur was cut off, and a bone marrow cavity was repeatedly washed by a low-sugar DMEM medium (containing 1 mL/L of heparin) sucked with a syringe to flush out bone marrow.
The bone marrow was repeatedly washed with the syringe, and prepared into a single cell suspension by successively passing through needle No. 7 and needle No. 4.
The single cell suspension was centrifuged (1500 r/min, 10 min), and a supernatant was discarded; DMEM-F12 complete medium containing 10% FBS was added, and then an inoculation was performed in a culture flask at a density of 10^7 cells/mL, and the culture flask was placed in an incubator having 5% CO2 at 37° C. for a culture.
The cells were purified by a differential adherent culture. The culture solution was changed 48 hours after the inoculation, and thereafter, the culture solution was changed every 3 days to remove non-adherent hematopoietic cells.
After the cells grew to 80%-90%, a passage was performed. The culture solution was removed, and the cells were washed with PBS to remove residual serum; and the PBS was removed.
A BMSCs digestive juice (containing 0.25% trypsin and 0.02% EDTA solution) was added for a slight shaking until the BMSCs digestive juice just covers the bottom of the culture flask; and a digestion time was about 5 minutes. Then, the passage was carried out.
The cells were transferred to a centrifuge tube, centrifuged at 1500 r/min for 10 minutes; a supernatant was removed; and a complete culture medium of mesenchymal stem cells was added for re-suspending the cells.
The BM23 peptide was dissolved in phosphate buffered saline (PBS).
(§1) The cells were re-suspended in a complete chondrogenic medium (purchased from Guangzhou Cyagen Biosicences Inc., Item No.: RASMX-90011) containing different concentrations of BM23 peptides (0.1 μM, 0.3 μM, and 1 μM), so that the concentration of BMSCs was 5.0×10^5 cells per ml. PBS was used as a negative control, and 1 μM human insulin growth factor (IGF-1, purchased from Beijing Yiqiao Shenzhou Biotechnology Co., Ltd.) was used as a positive control.
The treated BMSCs were incubated at 37° C. under 5% CO2 saturated humidity. The medium was changed every 2-3 days, and 0.5 mL of fresh complete chondrogenic medium was added to each tube. […]
Quantitative PCR Detection […]
Quantitative PCR was performed using cDNA as a template and the following primers: • (1) rat COL2A1-F1: 5′ […] […]

mesenchymal stem cells = test: Immunohistochemical detection of COL2A1 in mesenchymal stem cells; assay type: cell-based, rat; conditions: 1 μM
Protocol: as §1
The treated BMSCs were incubated at 37° C. under 5% CO2 saturated humidity. The medium was changed every 2-3 days, and 0.5 mL of fresh complete chondrogenic medium was added to each tube.
Generally, samples can be collected after 28 days of continuous induction; and cartilage balls can be subjected to formalin fixation, paraffin embedding, sectioning and alcian blue staining.
Paraffin Embedding of Tissues:
The specimens were fixed with 4% paraformaldehyde for 24-36 hours.
The specimens were taken out and washed to remove the fixative, and a material with a suitable size (about 0.2 cm in thickness) was cut for embedding.
The specimens were respectively treated once with 70%, 80%, 90% and 95% ethanol, and 60 minutes are for each treatment. The specimens were treated twice with 100% ethanol, and 50 minutes are for each time.
The specimens were treated once with ½xylene-½ absolute ethanol for 15 minutes. […]

chondrocytes [3] = test: Immunohistochemical detection of COL2A1 in chondrocytes; assay type: cell-based, New Zealand white rabbit; conditions: 1 μM, 5 days
Protocol: The articular cartilage of New Zealand white rabbit aged 2 months old was cut under sterile conditions, and cut into a size of 1 mm. The articular cartilage was digested at 37° C. according to the following procedure: (1) digested with 2 mg/ml hyaluronidase for 45 minutes; (2) digested with 2 mg/ml trypsin for 45 minutes; and (3) digested with 4 mg/ml type II collagenase for 3 hours, washed, and then centrifuged (1500 r/min) for 5 minutes; and the precipitate was cultured in a DMEM medium containing 15% fetal bovine serum. Immunohistochemical Detection of COL2A1 Chondrocytes were inoculated at 3.5×10^5 cells/ml in a 6-well culture plate with coverslips, and different concentrations of BM23 peptides were added; PBS was set as a negative control group, and IGF-1 was set as a positive control group. The 6-well culture plate was placed in a 5% CO2 saturated water-vapor carbon dioxide incubator for a culture at 37° C. for 5 days. Immunohistochemical staining was performed as in Embodiment 3.

[4] = test system: knee articular cartilage defect; test: Rabbit cartilage repair model; assay type: in vivo, New Zealand rabbits; conditions: for general observation score: 90 days after first administration, 0-4 point scale; for histopathological scores of articular cartilage: 90 days, ICRS pathological scoring, grade 0-6, six rabbits
Protocol: Animals: New Zealand rabbits, 2 months old, half male and half female
Construction of models: New Zealand rabbits were anesthetized with 6% pentobarbital sodium (0.7 mL/kg) via marginal ear veins. After anesthesia, a longitudinal incision having a length of about 3 cm was made on the medial side of the knee joint of the left hind leg; the skin, subcutaneous tissue and joint capsule were cut successively to maintain the integrity of the patellar ligament; and the patella was turned outward to expose the femoral condyle. When the knee joint flexes 90°, an articular cartilage defect with a diameter of 4.2 mm and a depth of 3 mm was drilled in the femur and the middle of lateral intercondylar articular surfaces corresponding to the patella by using a drill bit with a diameter of 4.2 mm (according to visible bleeding on subchondral bone). The defect was washed with normal saline without any other treatment. […] After the patella is reset, the muscle and skin incisions are sequentially sutured. After the operation, immediately, the animals were intramuscularly injected with penicillin sodium once a day for 3 consecutive days to prevent infection.
Administration: the New Zealand rabbits with knee articular cartilage defects were divided into four groups: negative control group, low-dose group (1 mg/rabbit), medium-dose group (3 mg/rabbit) and high-dose group (10 mg/rabbit), 12 rabbits in each group, half male and half female in each group. On the 6th day after constructing the models, each group of rabbits was administered intra-articularly. Namely, 1 mg/rabbit, 3 mg/rabbit and 10 mg/rabbit were administered to the test rabbits, respectively, and the administration volume was 0.2 ml.
Sacrifice and observation: at 90 days after the first administration, 6 rabbits (half male and half female) were selected from each group and sacrificed, and the repair situation of the knee articular cartilage in each rabbit was observed by dissection.
(1) General observation: during necropsy, the articular cavity was opened, the patella articular surface was exposed, and the repair of the filling edge of the defect, the flatness of the cartilage surface, the color of the new cartilage, etc., were observed.
Subsequently, scoring was performed according to the following criteria:
0 point: the articular surface is smooth and the color is normal;
1 point: the articular surface is rough, with small fissures and dark color;
2 points: the cartilage defect has reached the middle layer of cartilage;
3 points: the articular surface ulcer is formed, and the cartilage defect has reached the deep layer of cartilage; and
4 points: the cartilage is exfoliated, and subchondral bones are exposed.
(2) Histological pathological observation: observation was performed under light microscope, and scoring was performed according to the ICRS pathological scoring standard:
Grade 0: the cartilage surface is flat and the cartilage is intact;
Grade 1: the superficial fibers are formed in the cartilage surface and are uneven;
Grade 2: the cartilage surface is discontinuous, accompanied by cell proliferation; and metachromatic materials are increased or decreased in the II-III layers;
Grade 3: cartilage rhagadia has reached the III layer or erosion occurs;
Grade 4: the erosion of the cartilage is aggravated, and the articular cartilage is damaged;
Grade 5: the articular cartilage is exfoliated; and
Grade 6: the joint is deformed.
After the rabbits were sacrificed by anesthesia and exsanguination, the articular cartilage tissue was exfoliated and fixed with 10% neutral formalin, followed by dehydration, conventional paraffin embedding, sectioning, HE staining and mounting, and detection was performed by light microscopy.

in vivo = test: in vivo; design: species or system New Zealand rabbits; conditions: New Zealand, rabbit, iv, 0.5 mg/kg
Protocol: LC/MSMS methodology was established, Finnigan TSQ Discovery Max LC/MS was equipped with Surveyor HPLC system. The detection limit was 1-1000 ng/ml, and the recovery rate was over 80%. Six New Zealand rabbits were randomly divided into two groups (three rabbits in each group). […] The blood concentration was measured by LC/MSMS method, 100 μl of blood plasma was taken, 500 μl of a mixed solvent containing IS 2000 ng/ml of acetonitrile and methanol solution at a ratio of 70:30 was added, shaken, and centrifuged at 12000 rpm for 10 minutes. 20 μl of supernatant was injected for LC/MSMS analysis. The main pharmacokinetic parameters were calculated by using 3P97 pharmacokinetic software.

[5] = high-dose group 10 mg/rabbit intra-articular
[6] = low-dose group 1 mg/rabbit intra-articular
[7] = medium-dose group 3 mg/rabbit intra-articular

Compound | proliferation of chondrocytes compared with the PBS group (chondrocytes [1]) | mRNA expression level of ACAN compared with PBS treatment ([2]; 0.1 μM) | mRNA expression level of COL2A1 compared with PBS treatment ([2]; 0.1 μM) | mRNA expression level of ACAN compared with PBS treatment ([2]; 0.3 μM) | mRNA expression level of ACAN compared with PBS treatment ([2]; 1 μM) | expression level of COL2A1 protein (immunohistochemical staining) vs PBS treatment group (mesenchymal stem cells) | expression level of COL2A1 protein (immunohistochemical staining) vs PBS treatment group (chondrocytes [3]) | general observation score [4, 5] | histopathological scores of articular cartilage [4, 5] | general observation score [4, 6] | histopathological scores of articular cartilage [4, 6] | general observation score [4, 7] | histopathological scores of articular cartilage [4, 7] | half-life (in vivo)
positive control: human insulin growth factor (IGF-1), used at 1 μM as positive control | significantly promoted | – | – | – | – | – | – | – | – | – | – | – | – | –
CC[C@H](C)[C@H](NC(=O)[C@H](CCCNC(=N)N)NC(=O)[C@H](Cc1c[nH]cn1)NC(=O)[C@H](CCCCNC(=N)N)NC(=O)[C@H](CC(N)=O)NC(=O)[C@H](CCCNC(=N)N)NC(=O)[C@H](Cc1c[nH]cn1)NC(=O)[C@H](CCCCN)NC(=O)[C@H](CC(C)C)NC(=O)[C@H](N)CCC(N)=O)C(=O)N[C@@H](CCCCN)C(=O)N[C@H](C(=O)NCC(=O)N[C@@H](CO)C(=O)N[C@H](C(=O)N[C@@H](CC(N)=O)C(=O)N[C@@H](Cc1c[nH]cn1)C(=O)NCC(=O)N[C@@H](CC(C)C)C(=O)N[C@H](C(=O)N[C@@H](CCC(N)=O)C(=O)N[C@@H](CO)C(=O)N[C@@H](CC(C)C)C(N)=O)C(C)C)[C@@H](C)O)[C@@H](C)O [BM23 peptide] (HELM PEPTIDE1{[dQ].L.K.H.R.N.[N=C(N)NCCCC[C@H](N[*:1])C(=O)[*:2]].H.R.I.K.T.G.S.T.N.H.G.L.V.Q.S.L.[am]}$$$$V2.0; N-terminus assumed) | significantly promoted | no significant effect | no significant effect | significantly different | significantly different | significantly increased | significantly increased | 2.1 points | 2.1 points | 3.7 points | 3.7 points | 3.0 points | 3.0 points | 2.05 ± 0.633 h
